Test results from patent US5250305A, “Process for enzymatic ultrafiltration of deamidated protein” (The United States of America as represented by the …, priority 1990, dated 1993).
Peptide text beside a SMILES is read from it.

Tested on: PGase
Test: Km and Vmax of PGase substrates (Lineweaver-Burk plot)
Type: biochemical, Bacillus circulans
Settings: 0.05 M phosphate buffer, pH 7.0, 30° C.
Method: A 1 mL enzyme preparation containing 0.25-0.50 mg protein was added to 2-5 mL substrate in 0.05 M phosphate buffer, pH 7.0. The substrate concentrations were 0.2% CBZ-L-Gln, 0.2% BOC-Gln-Pro and 0.2% peptone type IV. Peptone solutions (5%) were ultrafiltered prior to use, through the 30 kd spiral membrane incubated at 30° C. for 30 or 60 min, then the ammonia constant of the samples was determined with a model 95-10 ammonia electrode (Orion Research Inc., Cambridge, Mass.).
The effects of the molarity and pH of the sodium phosphate buffer on PGase activity were studied. The progress of the PGase deamidation reaction of Peptone IV in 0.05 M phosphate buffer, pH 7.0, as a function of time was measured at 25° C. and 30° C.

Km	Vmax	Compound
67 µM	–	NC(=O)CC[C@H](NC(=O)OCc1ccccc1)C(=O)O [CBZ-glutamine, CBZ-L-glutamine]
143 µM	0.52 µmol/min/mg	CC(C)(C)OC(=O)N[C@@H](CCC(N)=O)C(=O)N1CCC[C@H]1C(=O)O [BOC-glutamine-proline, t-BOC-L-glutaminyl-L-proline] (HELM PEPTIDE1{[CC(C)(C)OC(=O)[*:2]].Q.P}$$$$V2.0)
